In patent US5939403A, “Keratan sulfate oligosaccharide fraction and pharmaceutical containing the same” (Seikagaku Corporation, priority 1994, dated 1999):

Legend:
carrageenin pleurisy = assay: Carrageenin pleurisy model; format: in vivo, Female S.D. rats; conditions: dexamethasone acetate 150 μg/kg s.c.; six hours
Description: The effect of the keratan sulfate oligosaccharide was examined with the carrageenin pleurisy model of rats which is generally used for evaluation of anti-inflammatory agents.
Female S.D. rats (n=37) of about 150 to 170 g weight were used for the test. The λ-carrageenin (Sigma) was dissolved in saline to a concentration of 2%, and the solution was filtered with a 0.8 μm filter. The carrageenin solution obtained was intrathoracically administered at 100 μl/animal to prepare the pleurisy model.
To the pleurisy model of rats (n=19) described above, the keratan sulfate tetrasaccharide (I) dissolved in PBS was subcutaneously (s.c.) administered in 20 mg/kg or 10 mg/kg dose. And as the positive control, steroid (dexamethasone acetate; Banyu Pharmaceutical) was subcutaneously administered to the eight rats described above in 150 μg/kg which was the clinical dose. As the negative control, PBS was subcutaneously administered to the 10 rats. Each administration was carried out immediately after the administration of carrageenin.
Each rat was anatomized six hours after the administration of λ-carrageenin. The thoracic cavity of the rats was opened to collect the retained pleural fluid using a 2-ml syringe with probe. After that, inside of the thoracic cavity was washed with 1 ml of saline, and the washing solution was recovered. The volume of the pleural fluid recovered with the syringe was determined, and the number of leukocyte (cell number) in the pleural fluid was determined by an automatic cytometer. The results are be shown in FIG. 8 and FIG. 9, respectively. In the figures, * and ** represent that they have the significant difference with p<0.05 and p<0.01, respectively (wherein "p" means a level of significance by the Duncan test).

[1] = system: foot edema reversed passive Arthus reaction; assay: Foot edema reversed passive Arthus reaction; format: in vivo, Male Crj:SD rats
Description: The effect of the keratan sulfate oligosaccharide was examined on the foot edema reversed passive Arthus reaction of rats, which is a type III allergic inflammation model. That is, the rabbit antiovalbumin serum was subcutaneously administered to the planta of the rats which were previously subjected to the administration of the test substances, furthermore ovalbumin was administered by injection into the caudal vein thereof to induce inflammation (edema), and the inhibitory effect on edema of the test substances was examined.
Male Crj:SD rats of five weeks old were subjected to a fast of about 17 hours after a week period of quarantine, and, before inducing inflammation, subjected to the administration of the purified keratan sulfate tetrasaccharide (I) which was prepared in Example 1, indomethacin (Sigma; Lot No. 19F0018), or dexamethasone (Banyu Pharmaceutical); Decadron injection; Lot No. 8D307P) as the test substances, or saline (Otsuka Pharmaceutical; Lot No. K3H72) as the negative control. The keratan sulfate tetrasaccharide (I) and dexamethasone were dissolved in saline, respectively, and the indomethacin was dissolved in 0.5% sodium carboxymethylcellulose (CMC-Na; Wako Pure Chemical Industries; Lot No. PTN1418) in use. The volume of dose was 0.5 ml per 100 g weight in each test. Concerning the route of administration, the keratan sulfate tetrasaccharide (I), saline, and dexamethasone were administered from the caudal vein, and the indomethacin was orally administered. And the substances except for indomethacin were administered by the blind method.
The dose and administration schedule of each test substance were as follows. Each group consisted of five animals.
The rabbit antiovalbumin serum was subcutaneously administered to each of the rats described above on the planta thereof, and ovalbumin was further administered by injection into the caudal vein to induce inflammation foot edema. The antiserum used was prepared as follows. That is, to the regions of back of rabbits, 1 ml of the equivalently mixed solution (emulsion) of the saline containing 2% ovalbumin (10 mg per one animal, Egg Albumin 5×Cryst, Lot No. P93601; Seikagaku Corporation) and the Freund's complete adjuvant (FCA) was intradermally injected once a week three times totally to subject themselves to sensitization. About 34 days after the last sensitization, the blood was drawn to obtain the antiserum. The antibody titer of the antiserum obtained was determined by the double layer method. Namely, the determination was performed using the white precipitation reaction of the antiserum diluted with saline and the saline containing 0.1% ovalbumin (1 mg/ml) as the indicator. As a result, the antibody titer of the antiserum obtained was x2^7.
After the period which is designed for each group, each 0.1 ml of the sixfold diluted antiserum was subcutaneously administered to the planta of left rear foot of the rats which were subjected to the administration of each test substance. Then, the saline containing 0.5% ovalbumin (25 mg/5 ml/kg) was administered into the caudal vein to induce inflammation. The volume of the treated feet in each group was determined before inducing inflammation, and one, two, three and four hours after inducing inflammation by a foot volume determining device (TK-101, Unicom) to yield the foot edematization rate from the difference from the value before the induction, and the edematization inhibitory rate of the test substance administered group to the control group was calculated. In each edematization rate obtained, the difference between the averages was tested by the minimum significant difference test. The foot edematization rate and the edematization inhibitory rate of each administered group are shown in Table 9, and the foot edematization rate of the administered groups which was subjected to the administration of the agent at five minutes and at three hours before inducing inflammation are shown in FIG. 6 and FIG. 7, respectively. […]

SMILES: CC(=O)OCC(=O)[C@@]1(O)[C@H](C)C[C@H]2[C@@H]3CCC4=CC(=O)C=C[C@]4(C)[C@@]3(F)[C@@H](O)C[C@@]21C [Dexamethasone Acetate, dexamethasone acetate, reference compound]
- number of leukocyte in pleural fluid (FIG. 9) (carrageenin pleurisy): significantly less than that in the control group
- quantity of pleural fluid (FIG. 8) (carrageenin pleurisy): significantly less than that in the negative control group

SMILES: C[C@@H]1C[C@H]2[C@@H]3CCC4=CC(=O)C=C[C@]4(C)[C@@]3(F)[C@@H](O)C[C@]2(C)[C@@]1(O)C(=O)CO [Dexamethasone, dexamethasone, reference compound]
- Inhibitory Rate ([1]; 1 Hour Later, dexamethasone 1 mg/kg i.v. at 3 hours before inducing edema): 47.8%
- Edematization Rate ([1]; 1 Hour Later, dexamethasone 1 mg/kg i.v. at 3 hours before inducing edema, P < 0.01, control 40.9): 21.3 ± 3.1%
- Inhibitory Rate ([1]; 2 Hours Later, dexamethasone 1 mg/kg i.v. at 3 hours before inducing edema): 31.7%
- Edematization Rate ([1]; 2 Hours Later, dexamethasone 1 mg/kg i.v. at 3 hours before inducing edema, P < 0.01, control 46.3): 31.6 ± 2.2%
- Inhibitory Rate ([1]; 3 Hours Later, dexamethasone 1 mg/kg i.v. at 3 hours before inducing edema): 39.9%
- Edematization Rate ([1]; 3 Hours Later, dexamethasone 1 mg/kg i.v. at 3 hours before inducing edema, P < 0.01, control 51.2): 30.7 ± 1.5%
- Inhibitory Rate ([1]; 4 Hours Later, dexamethasone 1 mg/kg i.v. at 3 hours before inducing edema): 58.1%
- Edematization Rate ([1]; 4 Hours Later, dexamethasone 1 mg/kg i.v. at 3 hours before inducing edema, P < 0.01, control 44.9): 18.8%
- foot edematization rate, significance (result in words) ([1]; dexamethasone 1 mg/kg, three hours before): significantly low values were observed at any determination point between one and four hours after inducing inflammation

SMILES: COc1ccc2c(c1)c(CC(=O)O)c(C)n2C(=O)c1ccc(Cl)cc1 [Indomethacin, indomethacin, reference compound]
- Inhibitory Rate ([1]; 1 Hour Later, 5 mg/kg oral at 30 minutes before inducing edema): 13.5%
- Edematization Rate ([1]; 1 Hour Later, 5 mg/kg oral at 30 minutes before inducing edema, control 40.9): 35.4 ± 1.6%
- Inhibitory Rate ([1]; 2 Hours Later, 5 mg/kg oral at 30 minutes before inducing edema): 17.5%
- Edematization Rate ([1]; 2 Hours Later, 5 mg/kg oral at 30 minutes before inducing edema, P < 0.05, control 46.3): 38.2 ± 2.9%
- Inhibitory Rate ([1]; 3 Hours Later, 5 mg/kg oral at 30 minutes before inducing edema): 9.0%
- Edematization Rate ([1]; 3 Hours Later, 5 mg/kg oral at 30 minutes before inducing edema, control 51.2): 46.4 ± 2.8%
- Inhibitory Rate ([1]; 4 Hours Later, 5 mg/kg oral at 30 minutes before inducing edema): 13.8%
- Edematization Rate ([1]; 4 Hours Later, 5 mg/kg oral at 30 minutes before inducing edema, P < 0.05, control 44.9): 38.7 ± 3.1%
- foot edematization rate, significance (result in words) ([1]; indomethacin 5 mg/kg oral, 30 minutes before): significantly low values were observed after two hours and after four hours
